Assay results: patent US7662361B2, “Methods and compositions for modulating drug activity through telomere damage” (priority 1999, dated 2010)

What was measured:
[1] = system: PC3 cells; test: Time course of apoptotic changes (caspase 3, PARP cleavage, DNA fragmentation, DNA-histone release); type: cell-based, human; conditions: 20 nM paclitaxel
Description: Caspase Activity. The activity of Caspase 3 was measured using the ApoAlert CPP32 assay (Clontech Laboratories, Palo Alto, Calif.). Briefly, 1×10^6 cells were lysed using the lysis buffer provided in the assay kit. The lysate was stored at −20° C. and analyzed within 1 week. Enzyme activity was detected by the cleavage of the substrate, Asp-Glu-Val-Asp-7-amino-4-trifluoromethyl coumarin (DEVD-AFC) to AFC, which emits a yellow-green fluorescence at 505 nm. The increase in caspase activity is measured as the ratio of the fluorescence intensity of a agent-treated sample (e.g., paclitaxel) to that of control cells collected at the same time.
PARP Cleavage. […] PARP cleavage was analyzed by immunoblotting. […] Protease inhibitors were used to minimize proteolytic cleavage of PARP during processing. […] Samples were sonicated on ice, resuspended using a 21 gauge needle, and then incubated at 75° C. for 15 min. After centrifugation, an aliquot representing 1.5×10^5 cells was loaded on a 10% SDS polyacrylamide gel and run at 30 mA overnight. The gel was transferred onto a […] nitrocellulose membrane by electroblotting. The membrane was incubated with blocking solution (5% non-fat dry milk in PBS containing 0.1% Tween 20) for 1 hr, followed by incubation with the PARP monoclonal antibody overnight at 4° C. and subsequently the anti-mouse immunoglobulin. After washing the membrane in PBS twice for 5 min each and once for 30 min, the immunoreactive bands were visualized by incubation of the membrane with the chemiluminescence immunoblot kit.
Release of DNA-Histone Complex to Cytoplasm. The level of DNA-histone mono- and oligonucleosomes in the cytoplasm was measured using the cell death detection ELISA kit. Briefly, 5000 cells were lysed in the lysis buffer. The cytoplasmic fractions of the lysates were placed in a […] precoated with mouse antihistone primary antibody and mouse anti-DNA antibody conjugated to peroxidase. The peroxidase substrate, 2,2′-azido-di-[3-ethylbenzthiazoline sulfonate], was applied and the absorbance at 405 nm was measured.
DNA Fragmentation. […] DNA was extracted twice with phenol/chloroform (1:1) and once with chloroform, and precipitated by adding 0.2 volume 10 M […] and 2 volumes ethanol. The pellet obtained after centrifugation was resuspended in 100 mM Tris-HCl and 10 mM EDTA (pH 8.0). The amount of DNA was measured by the absorbance at 260 nm, using a spectrophotometer. Samples showing a 260:280 absorbance ratio of >1.8, which ascertained the purity of the isolated DNA, were analyzed by gel electrophoresis. […] The DNA laddering pattern was visualized by UV transillumination and photographed.

[2] = system: FaDu cells; test: Cell detachment from the growth surface; type: cell-based, human; conditions: 200 nM paclitaxel, end of 48-hr treatment
Description: Upon drug treatment, the supernatant along with two subsequent Versene rinses, which contained the detached cells, were collected. […] These samples were centrifuged at 1500 rpm for 10 min and the resulting cell pellets were resuspended in 2 ml of culture media. The cell number in the detached and attached fractions were counted using a Coulter counter (Coulter Electronic, Inc., Hialeah, Fla.).
Treatment with the above agents was initiated after cells were allowed to attach to the growth surface in culture flasks. On the day of experiments, the culture medium was removed and replaced with drug-containing medium. […] For d4T, two concentrations, 20 μM and 40 μM were used.
Agent effect was measured in three ways, i.e., enumeration of the number of cells that remained attached in culture flask, enumeration of the number of cells that detached from the growth surface, and by measuring changes in apoptosis. […] The drug-induced detachment of cells from the growth surface was determined by counting the attached and detached cells.

[3] = Host toxicity (body weight, death) in xenograft-bearing mice; conditions: single agents
Description: The activity of paclitaxel, with or without AZT, was evaluated in immunodeficient mice (male Balb/c nu/nu mice, 6-8 weeks old) bearing the human pharynx FaDu xenografts. […] The saline control group received injections of 200 μl/day of physiological saline of five consecutive days. The paclitaxel group received injections of 10 mg/kg/day paclitaxel dissolved in Cremophor and ethanol (i.e., Taxol) in a volume of 200 μl for five consecutive days. The AZT group received a seven-day infusion of AZT at a rate of 200 ng/hr by a subcutaneously implanted Alzet minipump. […] Animal weights and tumor sizes were measured on days 1, 3, 6, 8, and 10 after initiation of the paclitaxel treatment.

[4] = system: FaDu cells; test: Externalization of phosphatidylserine (Annexin V); type: cell-based, human; conditions: 200 nM paclitaxel
Description: Externalization of phosphatidylserine. Apoptotic cells lose membrane phospholipid asymmetry and expose phosphatidylserine on the outer leaflet of plasma membrane. The externalized phosphatidylserine was labeled with Annexin V attached to a fluorescence probe FITC (green fluorescence), using the ApoAlert Annexin V assay (Clontech). As apoptosis progresses, propidium iodide penetrates the cell membrane and stains the cytoplasm (yellow-red stain). Briefly, cells were suspended in binding buffer, incubated with Annexin V-FITC and propidium iodide for 5-15 min in the dark, and examined by fluorescence microscopy. Cells labeled with FITC and/or propidium iodide were scored.

[5] = system: SKOV3 cells; test: FISH detection of damaged telomeres after paclitaxel treatment; type: cell-based, human; conditions: 200 nM paclitaxel
Text: Fluorescent in situ hybridization (FISH). Fluorescent in situ hybridization (FISH) was used to identify the presence and to estimate the approximate length of individual telomere structures at the end of chromosomes. The FISH method used was a modification of a previously published method (Multani A S et al. (1996) Anticancer Res 16: 3435-3438; Henderson S et al. (1996) J Cell Biol 134:1-12), and consists of the following three steps: (a) the cells are fixed in a manner that promotes spreading of the chromosomes, (b) a nucleotide sequence complementary to the telomere sequence is used as probe to bind to the telomeres and to provide a point of attachment for fluorescently-labeled antibodies, and (c) the fluorescent signal is identified using fluorescent microscopy.
The methods are as follows. To spread the chromosomes, the cell pellet was incubated with a hypotonic solution (75 mM KCl) at 37° C. for 20 min, washed three times and fixed with acetic acid and methanol, dropped onto slides, air-dried, and denatured in 2×SSC and 70% formamide at 74° C. for 5 min. To detect the telomeres, the cells were incubated with a digoxigenin-labeled human telomeric probe (Oncor) at 37° C. for 16 to 18 hr. The slides were washed consecutively in 2×SSC at 42° C. and 72° C., each time for 5 min. After blocking with 5% skim milk for 10 min, cells were incubated sequentially with rhodamine-labeled (red color) anti-digoxigenin, rabbit anti-sheep, and rhodamine-labeled anti-rabbit antibodies, at room temperature for 30 min. Between each step, the slides were washed three times in 130 mM phosphate buffer, pH 7.4, 0.1% Triton X-100, each time for 5 min. The chromosomes were then counterstained with 0.1 μg/ml of […] (blue color) and examined under a fluorescence microscope at 100× magnification using a triple band pass filter at 340 nm.

CC(=O)O[C@H]1C(=O)[C@@]2(C)[C@H]([C@H](OC(=O)c3ccccc3)[C@]3(O)C[C@H](OC(=O)[C@H](O)[C@@H](NC(=O)c4ccccc4)c4ccccc4)C(C)=C1C3(C)C)[C@]1(OC(C)=O)CO[C@@H]1C[C@@H]2O [paclitaxel]
caspase activation, time of occurrence ([1]; attached cells): 24 h
PARP cleavage completed ([1]; detached cells): < 72 h
PARP cleavage first detected ([1]; detached cells): 24 h
caspase activation first detected ([1]; detached cells): 12 h
caspase activation peak ([1]; detached cells): 36 h
internucleosomal DNA fragmentation and release of DNA-histone complex first detected ([1]; detached cells): 24 h
detached cell fraction [2]: about 40%
toxicity-related death [3]: no toxicity-related death
fraction labeled for externalized phosphatidylserine ([4]; attached cells): 6-8%
time at which labeled fraction became significantly higher than untreated controls ([4]; detached cells): 12 h
fraction labeled for externalized phosphatidylserine ([4]; detached cells, 24 hr): 60%
attached cells showing damaged telomeres ([5]; 1 and 12 hr): < 5%
detached cells showing damaged telomeres ([5]; 1 hr): 40%
detached cells showing damaged telomeres ([5]; 12 hr): 90%
treatment time after which shortening or deletion of telomeres was detectable ([5]; FaDu and SKOV3): 1 h
